We go through 34 molecules from patent publication US11203600B2 (Denali Therapeutics Inc., priority 2017, dated 2021).

Where only a bound is given, the exact number is not on record here.

GST-hRIPK1 (8-327), sequence (Q13546 8-327): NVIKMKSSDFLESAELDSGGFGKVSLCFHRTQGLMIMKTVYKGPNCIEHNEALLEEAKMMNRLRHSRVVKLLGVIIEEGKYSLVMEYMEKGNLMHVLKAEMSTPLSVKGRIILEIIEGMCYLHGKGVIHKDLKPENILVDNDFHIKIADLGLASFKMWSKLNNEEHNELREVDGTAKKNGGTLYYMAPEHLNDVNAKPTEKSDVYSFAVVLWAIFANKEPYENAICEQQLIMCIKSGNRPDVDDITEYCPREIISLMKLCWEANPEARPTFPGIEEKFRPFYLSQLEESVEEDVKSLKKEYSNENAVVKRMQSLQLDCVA

One assay concerns the target GST-hRIPK1 (8-327) (Homo sapiens (Human), UniProt Q13546). As to the kind of experiment: Fluorescent Polarization Binding (FP Binding) assay, RIPK1. The settings on record: 10 nM GST-hRIPK1 (8-327), 5 nM fluorescent-labeled ligand, RT, 30 min, mean of at least two independent experiments. The method, boiled down: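 Binding by fluorescence polarisation at RT: 10 nM baculovirus-expressed GST-hRIPK1 (8-327) and 5 nM fluorescent ligand, 30 min, in 50 mM HEPES pH 7.5, 50 mM MgCl2, 0.02% CHAPS, 1% DMSO. FP read at ex 531/em 595 nm. IC50 from normalised percent inhibition, mean of ≥2 experiments.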
What is called IC50 is the concentration that gives 50% inhibition. `CCC(C)(C)C(=O)N1CCOc2c(C#N)cncc2C1` [Example 54, 4-(2,2-dimethylbutanoyl)-3,5-dihydro-2H-pyrido[3,4-f][1,4]oxazepine-9-carbonitrile] had a half-inhibitory concentration (IC50) of 0.1 to 100 nM.
`CC(C)(CC(F)F)C(=O)N1CCOc2c(F)cccc2C1` [Example 16, 4,4-difluoro-1-(9-fluoro-3,5-dihydro-2H-1,4-benzoxazepin-4-yl)-2,2-dimethyl-butan-1-one] had a concentration for half-maximal inhibition (IC50) of 0.1 to 100 nM.
Same read-out and setting: in the case of `CC(C)(C(=O)N1CCOc2c(C#N)cccc2C1)C1CC1` [Example 26, 4-(2-cyclopropyl-2-methyl-propanoyl)-3,5-dihydro-2H-1,4-benzoxazepine-9-carbonitrile] it was 0.1 to 100 nM; in that of `CC1COc2ccccc2CN1C(=O)C(C)(C)C(F)F` (stereo not shown) [Example 21, 3,3-difluoro-2,2-dimethyl-1-(3-methyl-2,3-dihydrobenzo[f][1,4]oxazepin-4(5H)-yl)propan-1-one], 0.1 to 100 nM; in that of `CC(C)(CC#N)C(=O)N1CCOc2c(F)cccc2C1` [Example 14, 4-(9-fluoro-3,5-dihydro-2H-1,4-benzoxazepin-4-yl)-3,3-dimethyl-4-oxo-butanenitrile], 0.1 to 100 nM.
On the same count and under the same terms, the value for `CC(C)(C(=O)N1CCOc2cc(C(F)(F)F)ncc2C1)C(F)F` [Example 66, 3,3-difluoro-2,2-dimethyl-1-[8-(trifluoromethyl)-3,5-dihydro-2H-pyrido[3,4-f][1,4]oxazepin-4-yl]propan-1-one] was over 1000 nM; that for `N#Cc1cncc2c1OCCN(C(=O)C1(F)CCN(c3ncc4c(n3)CCC4)CC1)C2` [Example 111, 4-[1-(6,7-dihydro-5H-cyclopenta[d]pyrimidin-2-yl)-4-fluoro-piperidine-4-carbonyl]-3,5-dihydro-2H-pyrido[3,4-f][1,4]oxazepine-9-carbonitrile] was 100 to 1000 nM.
Molecule `CC(C)(CF)C(=O)N1CCOc2c(C#N)cncc2C1` [Example 144, 4-(3-fluoro-2,2-dimethyl-propanoyl)-3,5-dihydro-2H-pyrido[3,4-f][1,4]oxazepine-9-carbonitrile] gave an IC50 of 0.1 to 100 nM.
On to `N#Cc1cncc2c1OCCN(C(=O)C1CCN(c3ncc(F)cn3)CC1)C2` [Example 155, 4-[1-(5-fluoropyrimidin-2-yl)piperidine-4-carbonyl]-3,5-dihydro-2H-pyrido[3,4-f][1,4]oxazepine-9-carbonitrile], for which the IC50 was 0.1 to 100 nM.
The same measure, in the same setting: the value for `CCC1(C(=O)N2CCOc3c(C#N)cncc3C2)CC1` [Example 63, 4-(1-ethylcyclopropanecarbonyl)-3,5-dihydro-2H-pyrido[3,4-f][1,4]oxazepine-9-carbonitrile] was 100 to 1000 nM.
On the same count and under the same terms, in the case of `CC1(C(=O)N2CCOc3ccccc3C2)CCN(c2ncc(F)cn2)CC1` [Example 9, 3,5-dihydro-2H-1,4-benzoxazepin-4-yl-[1-(5-fluoropyrimidin-2-yl)-4-methyl-4-piperidyl]methanone] it was 0.1 to 100 nM; in that of `CC(C)(C(=O)N1CCOc2c(C#N)cncc2C1)C1CC(F)(F)C1` [Example 84, 4-[2-(3,3-difluorocyclobutyl)-2-methyl-propanoyl]-3,5-dihydro-2H-pyrido[3,4-f][1,4]oxazepine-9-carbonitrile], 0.1 to 100 nM; in that of `CC(F)(F)C(C)(C)C(=O)N1CCOc2c(C#N)cncc2C1` [Example 142, 4-(3,3-difluoro-2,2-dimethyl-butanoyl)-3,5-dihydro-2H-pyrido[3,4-f][1,4]oxazepine-9-carbonitrile], 0.1 to 100 nM.
The molecule `N#Cc1cncc2c1OCCN(C(=O)C1(C(F)(F)F)CCC1)C2` [Example 53, 4-[1-(trifluoromethyl)cyclobutanecarbonyl]-3,5-dihydro-2H-pyrido[3,4-f][1,4]oxazepine-9-carbonitrile] gave a half-inhibitory concentration (IC50) of 100 to 1000 nM.
On the same count and under the same terms, in the case of `CC(C#N)C(C)(C)C(=O)N1CCOc2c(C#N)cncc2C1` (stereo not shown) [Example 72] it was 100 to 1000 nM.
With `CC(C)(C(=O)N1CCOc2ncccc2C1)C(F)F` [Example 34, 1-(2,3-dihydropyrido[3,2-f][1,4]oxazepin-4(5H)-yl)-3,3-difluoro-2,2-dimethylpropan-1-one], the IC50 is over 1000 nM.
For `N#Cc1cncc2c1OCCN(C(=O)C1(F)CCN(c3nccc4ncnn34)CC1)C2` [Example 166, 4-[4-fluoro-1-([1,2,4]triazolo[1,5-c]pyrimidin-5-yl)piperidine-4-carbonyl]-3,5-dihydro-2H-pyrido[3,4-f][1,4]oxazepine-9-carbonitrile], the 50% inhibitory concentration (IC50) was in the range of 100 to 1000 nM.
Regarding `N#Cc1cncc2c1OCCN(C(=O)C1(Cl)CCN(c3ncc(F)cn3)CC1)C2` [Example 177, 4-[4-chloro-1-(5-fluoropyrimidin-2-yl)piperidine-4-carbonyl]-3,5-dihydro-2H-pyrido[3,4-f][1,4]oxazepine-9-carbonitrile], the IC50 lay in the range of 0.1 to 100 nM.
`CC(C)(C(=O)N1CCOc2c(C#N)cc(F)cc2C1)C(F)F` [Example 22, 4-(3,3-difluoro-2,2-dimethyl-propanoyl)-7-fluoro-3,5-dihydro-2H-1,4-benzoxazepine-9-carbonitrile] displayed an IC50 of 0.1 to 100 nM.
`COC(C)(C)C(=O)N1CCOc2c(C#N)cncc2C1` [Example 43, 4-(2-methoxy-2-methyl-propanoyl)-3,5-dihydro-2H-pyrido[3,4-f][1,4]oxazepine-9-carbonitrile] registered an IC50 of 100 to 1000 nM.

The assay is the same for the next values; noted with them: GST-hRIPK1 (8-327), mean of at least two independent experiments.
As for `N#Cc1cncc2c1OCCN(C(=O)C1(F)CCN(c3nccn4ncnc34)CC1)C2` [Example 206, 4-[4-fluoro-1-([1,2,4]triazolo[1,5-a]pyrazin-8-yl)piperidine-4-carbonyl]-3,5-dihydro-2H-pyrido[3,4-f][1,4]oxazepine-9-carbonitrile], the IC50 lay in the range of 0.1 to 100 nM.
The molecule `CC1(C(=O)N2CCOc3c(C#N)cncc3C2)CCN(c2ncccn2)CC1(F)F` (single isomer, unassigned) [Example 297, 4-[3,3-Difluoro-4-methyl-1-pyrimidin-2-yl-piperidine-4-carbonyl]-3,5-dihydro-2H-pyrido[3,4-f][1,4]oxazepine-9-carbonitrile] returned a half-inhibitory concentration (IC50) of 0.1 to 100 nM.
Same read-out and setting: the value for `N#Cc1cncc2c1OCCN(C(=O)C1=CCN(c3ncc(F)cn3)CC1)C2` [Example 245, 4-[1-(5-fluoropyrimidin-2-yl)-3,6-dihydro-2H-pyridine-4-carbonyl]-3,5-dihydro-2H-pyrido[3,4-f][1,4]oxazepine-9-carbonitrile] was 100 to 1000 nM; that for `CCC(C)(CC#N)C(=O)N1CCOc2c(C#N)cncc2C1` (single isomer, unassigned) [Example 265, 4-[2-(Cyanomethyl)-2-methyl-butanoyl]-3,5-dihydro-2H-pyrido[3,4-f][1,4]oxazepine-9-carbonitrile] was 0.1 to 100 nM.
On the same count and under the same terms, the value for `CC(F)(F)C(C)(CF)C(=O)N1CCOc2c(C#N)cncc2C1` (stereo not shown) [Example 267, 4-[3,3-Difluoro-2-(fluoromethyl)-2-methyl-butanoyl]-3,5-dihydro-2H-pyrido[3,4-f][1,4]oxazepine-9-carbonitrile] was 100 to 1000 nM; that for `CCC(C)(C(=O)N1CCOc2c(C#N)cncc2C1)C(F)F` (single isomer, unassigned) [Example 261, 4-(2-(Difluoromethyl)-2-methylbutanoyl)-2,3,4,5-tetrahydropyrido[3,4-f][1,4]oxazepine-9-carbonitrile] was 0.1 to 100 nM.
The same measure, in the same setting: in the case of `O=C(C1CCN(c2ccnc3ccnn23)C[C@@H]1F)N1CCOc2c(F)cncc2C1` (stereo partly drawn) [Example 253, (9-fluoro-3,5-dihydro-2H-pyrido[3,4-f][1,4]oxazepin-4-yl)-[(3,4)-trans-3-fluoro-1-pyrazolo[1,5-a]pyrimidin-7-yl-4-piperidyl]methanone] it was 0.1 to 100 nM; in that of `N#Cc1cncc2c1OCCN(C(=O)C1(O)CCN(c3ncc(F)cn3)CC1F)C2` (stereo not shown) [Example 208, 4-[3-fluoro-1-(5-fluoropyrimidin-2-yl)-4-hydroxy-piperidine-4-carbonyl]-3,5-dihydro-2H-pyrido[3,4-f][1,4]oxazepine-9-carbonitrile], 100 to 1000 nM.
As for `N#Cc1cncc2c1OCCN(C(=O)C1CCN(c3ncnc4ccnn34)CC1(F)F)C2` (stereo not shown) [Example 220], the half-inhibitory concentration (IC50) fell in the range of 100 to 1000 nM.
The molecule `N#Cc1cncc2c1OCCN(C(=O)C1(F)CCN(c3ncc(F)cn3)CC1(F)F)C2` (single isomer, unassigned) [Example 295, 4-[3,3,4-Trifluoro-1-(5-fluoropyrimidin-2-yl)piperidine-4-carbonyl]-3,5-dihydro-2H-pyrido[3,4-f][1,4]oxazepine-9-carbonitrile] showed an IC50 of 100 to 1000 nM.
Molecule `CC(C)(C(=O)N1CCOc2c(C#N)cncc2C1)C1CC1COC(F)(F)F` (stereo not shown) [Example 274, 4-(2-Methyl-2-(2-((trifluoromethoxy)methyl)cyclopropyl)propanoyl)-2,3,4,5-tetrahydropyrido[3,4-f][1,4]oxazepine-9-carbonitrile] yielded an IC50 of over 1000 nM.
`N#Cc1cncc2c1OCCN(C(=O)C1CCN(c3ncc(F)cn3)CC1(F)F)C2` (single isomer, unassigned) [Example 308, 4-[3,3-Difluoro-1-(5-fluoropyrimidin-2-yl)piperidine-4-carbonyl]-3,5-dihydro-2H-pyrido[3,4-f][1,4]oxazepine-9-carbonitrile]: the 50% inhibitory concentration (IC50) lay within 0.1 to 100 nM.
On the same count and under the same terms, the value for `CC(C)(C(=O)N1CCOc2c(C#N)cncc2C1)[C@H]1C[C@@H](Cn2nccn2)C1` [Example 291, cis-4-[2-methyl-2-[3-(triazol-2-ylmethyl)cyclobutyl]propanoyl]-3,5-dihydro-2H-pyrido[3,4-f][1,4]oxazepine-9-carbonitrile] was 100 to 1000 nM; that for `CC(C(=O)N1CCOc2c(C#N)cncc2C1)(C(F)F)C(F)F` [Example 268, 4-[2-(difluoromethyl)-3,3-difluoro-2-methyl-propanoyl]-3,5-dihydro-2H-pyrido[3,4-f][1,4]oxazepine-9-carbonitrile] was 100 to 1000 nM.
